Like-named read-outs stand apart in the source and are kept apart here.

Consider nine molecules from patent publication EP4692090A1 (Shanghai Fosun Pharmaceutical (Group) Co., Ltd., priority 2023, dated 2024).

The target of one experiment is T1, ATR kinase (Homo sapiens, UniProt Q13535).
T1 construct: purchased Eurofins 14-953
The experiment in a line: Inhibitory effect on ATR kinase activity (Caliper mobility shift, FAM-labeled RAD17 peptide substrate). It counts as biochemical. In short, it runs like this: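 Caliper mobility-shift assay with 1 nM ATR, FAM-labeled RAD17 peptide […] and 5 mM ATP in HEPES pH 7.5 with 10 mM MnCl2, run 3 h at 28 °C and stopped with EDTA. Compounds were tested in 10-point 3-fold dilutions from 1 µM. IC50 was fitted from % inhibition of substrate conversion versus blank control.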

In the next experiment the test system is LoVo cells. In words: LoVo cell proliferation assay (CellTiter-Glo). It counts as cell-based. The following applies: Homo sapiens, LoVo, 120 h, maximum concentration 10 µM, 9 concentrations. Summed up:
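LoVo cells, 2,000 per well, were treated after overnight attachment with 9-point 3-fold dilutions from 10 µM for 5 days at 37 °C. Viability was read by CellTiter-Glo luminescence. Inhibition % was taken relative to DMSO control, and IC50 came from the concentration–inhibition curve.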
(In general: ATP-based viability assays read luminescence as a measure of living cells.)

Where [1] appears, read: 1 nM ATR kinase (Eurofins), 28°C for 3 hours, maximum concentration 1 µM, 10 concentrations, read-out: ATR kinase IC50.
The mark [2] stands for this setting: LoVo cells, 2,000 cells per well, 5 days incubation, CellTiter-Glo, read-out: LoVo IC50.
The mark [3] stands for this setting: read-out: ATR kinase IC50, 1 nM ATR kinase (Eurofins), 28°C for 3 hours, maximum concentration 1 µM, 10 concentrations.
Setting [4] is: read-out: LoVo IC50 (nM), LoVo cells, 2,000 cells per well, 5 days incubation, CellTiter-Glo.

T1 sequence (Q13535 whole entry): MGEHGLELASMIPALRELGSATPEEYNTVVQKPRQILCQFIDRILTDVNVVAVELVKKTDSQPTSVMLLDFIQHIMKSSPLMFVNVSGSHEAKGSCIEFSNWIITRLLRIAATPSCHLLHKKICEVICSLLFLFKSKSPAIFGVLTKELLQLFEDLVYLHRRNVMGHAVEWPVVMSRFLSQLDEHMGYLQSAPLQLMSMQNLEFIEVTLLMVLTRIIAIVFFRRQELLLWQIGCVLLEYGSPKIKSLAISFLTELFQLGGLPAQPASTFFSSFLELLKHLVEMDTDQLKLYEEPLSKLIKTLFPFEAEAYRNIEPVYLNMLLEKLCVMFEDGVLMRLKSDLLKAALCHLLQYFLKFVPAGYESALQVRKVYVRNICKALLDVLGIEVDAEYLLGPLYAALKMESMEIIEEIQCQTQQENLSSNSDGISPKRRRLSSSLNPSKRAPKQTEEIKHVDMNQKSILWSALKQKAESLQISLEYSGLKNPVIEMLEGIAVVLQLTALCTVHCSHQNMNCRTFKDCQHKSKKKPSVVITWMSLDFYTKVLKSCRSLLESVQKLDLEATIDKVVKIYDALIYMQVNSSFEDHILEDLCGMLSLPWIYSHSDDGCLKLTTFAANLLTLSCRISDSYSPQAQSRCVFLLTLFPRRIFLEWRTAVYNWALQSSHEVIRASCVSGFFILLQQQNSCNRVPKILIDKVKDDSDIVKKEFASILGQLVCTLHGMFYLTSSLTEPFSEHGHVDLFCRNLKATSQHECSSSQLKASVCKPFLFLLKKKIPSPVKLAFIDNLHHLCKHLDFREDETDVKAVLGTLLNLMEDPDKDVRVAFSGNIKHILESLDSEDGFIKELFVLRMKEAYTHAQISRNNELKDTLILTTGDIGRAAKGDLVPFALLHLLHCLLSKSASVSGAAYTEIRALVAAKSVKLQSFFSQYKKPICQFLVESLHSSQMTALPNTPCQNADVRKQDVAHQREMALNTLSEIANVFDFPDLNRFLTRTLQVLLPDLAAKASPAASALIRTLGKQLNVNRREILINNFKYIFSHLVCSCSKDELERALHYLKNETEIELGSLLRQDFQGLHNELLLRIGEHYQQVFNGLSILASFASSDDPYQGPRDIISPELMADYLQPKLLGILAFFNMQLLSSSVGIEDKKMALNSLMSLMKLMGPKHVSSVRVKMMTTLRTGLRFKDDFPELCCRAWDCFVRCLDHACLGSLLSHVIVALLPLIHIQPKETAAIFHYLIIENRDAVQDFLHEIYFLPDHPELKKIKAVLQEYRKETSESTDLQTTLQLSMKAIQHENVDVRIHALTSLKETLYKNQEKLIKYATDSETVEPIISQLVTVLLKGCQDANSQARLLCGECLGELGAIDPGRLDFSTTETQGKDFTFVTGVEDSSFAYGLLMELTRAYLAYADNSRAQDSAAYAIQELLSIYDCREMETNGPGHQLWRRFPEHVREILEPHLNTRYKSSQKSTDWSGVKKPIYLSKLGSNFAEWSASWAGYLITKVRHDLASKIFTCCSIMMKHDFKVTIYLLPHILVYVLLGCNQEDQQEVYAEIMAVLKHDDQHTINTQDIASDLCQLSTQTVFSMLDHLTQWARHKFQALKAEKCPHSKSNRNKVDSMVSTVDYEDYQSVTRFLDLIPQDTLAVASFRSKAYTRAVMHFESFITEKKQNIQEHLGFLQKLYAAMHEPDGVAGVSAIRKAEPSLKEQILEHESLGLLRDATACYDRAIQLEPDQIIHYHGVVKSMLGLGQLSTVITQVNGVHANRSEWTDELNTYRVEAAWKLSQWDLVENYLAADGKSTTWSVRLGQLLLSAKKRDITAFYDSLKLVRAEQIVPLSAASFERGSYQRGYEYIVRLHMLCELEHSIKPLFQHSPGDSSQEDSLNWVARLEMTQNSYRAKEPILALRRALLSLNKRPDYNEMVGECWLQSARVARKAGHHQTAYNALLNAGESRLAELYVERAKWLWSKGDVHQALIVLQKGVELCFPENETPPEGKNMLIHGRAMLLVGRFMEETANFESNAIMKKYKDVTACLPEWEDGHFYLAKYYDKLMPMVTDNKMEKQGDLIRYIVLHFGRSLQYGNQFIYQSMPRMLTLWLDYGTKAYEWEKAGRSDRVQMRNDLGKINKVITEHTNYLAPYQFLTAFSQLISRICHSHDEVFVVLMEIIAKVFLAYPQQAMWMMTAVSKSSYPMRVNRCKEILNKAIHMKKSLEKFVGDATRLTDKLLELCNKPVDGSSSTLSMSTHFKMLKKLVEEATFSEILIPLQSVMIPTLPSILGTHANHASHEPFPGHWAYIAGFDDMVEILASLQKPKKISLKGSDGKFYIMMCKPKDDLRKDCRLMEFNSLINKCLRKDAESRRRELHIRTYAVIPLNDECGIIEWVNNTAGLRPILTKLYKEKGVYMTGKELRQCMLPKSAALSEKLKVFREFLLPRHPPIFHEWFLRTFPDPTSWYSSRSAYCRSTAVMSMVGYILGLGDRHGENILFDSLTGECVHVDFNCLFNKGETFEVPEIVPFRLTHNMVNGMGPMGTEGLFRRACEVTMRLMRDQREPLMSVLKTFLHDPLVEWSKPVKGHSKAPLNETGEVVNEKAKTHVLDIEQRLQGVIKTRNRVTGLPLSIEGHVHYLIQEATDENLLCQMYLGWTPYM
T1 sequence (Q8WXE1 whole entry partner): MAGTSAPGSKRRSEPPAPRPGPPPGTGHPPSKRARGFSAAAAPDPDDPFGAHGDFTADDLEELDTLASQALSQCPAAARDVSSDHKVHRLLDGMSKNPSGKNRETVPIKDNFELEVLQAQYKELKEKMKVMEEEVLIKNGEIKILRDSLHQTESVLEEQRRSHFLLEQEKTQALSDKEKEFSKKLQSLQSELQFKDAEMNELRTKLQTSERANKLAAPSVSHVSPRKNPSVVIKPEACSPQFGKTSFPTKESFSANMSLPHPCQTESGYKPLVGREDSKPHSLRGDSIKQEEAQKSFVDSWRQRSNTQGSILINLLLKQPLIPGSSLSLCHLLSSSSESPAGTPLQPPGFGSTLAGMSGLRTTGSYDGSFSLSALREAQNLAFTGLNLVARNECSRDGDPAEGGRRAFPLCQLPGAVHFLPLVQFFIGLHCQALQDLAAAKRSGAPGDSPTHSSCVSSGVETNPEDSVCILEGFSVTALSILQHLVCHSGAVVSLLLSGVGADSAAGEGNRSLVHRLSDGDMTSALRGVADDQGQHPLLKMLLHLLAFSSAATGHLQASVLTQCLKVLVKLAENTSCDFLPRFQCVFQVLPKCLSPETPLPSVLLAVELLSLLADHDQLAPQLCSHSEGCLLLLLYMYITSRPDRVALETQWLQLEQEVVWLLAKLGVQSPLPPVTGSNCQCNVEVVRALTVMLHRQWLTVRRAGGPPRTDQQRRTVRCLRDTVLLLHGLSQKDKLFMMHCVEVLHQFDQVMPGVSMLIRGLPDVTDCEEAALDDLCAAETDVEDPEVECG

Take `C[C@@H]1COCCN1c1cc2c3c(nn(-c4cc[nH]n4)c3n1)CCN(C1CC1)C2=O` [Compound 132, (R)-7-cyclopropyl-4-(3-methylmorpholino)-2-(1H-pyrazol-3-yl)-2,7,8,9-tetrahydro-6H-1,2,3,7-tetraazabenzo[cd]azulene-6-one]: the IC50 at ATR kinase (setting [1]) was 10 to 100 nM; in the experiment with LoVo cells (setting [2]), less than 100 nM.

As to `C[C@@H]1COCCN1c1cc2c3c(nn(-c4cc[nH]n4)c3n1)CCN(C1COC1)C2C1CC1` (stereo partly drawn) [Compound 135, (3R)-4-(6-cyclopropyl-7-(oxetan-3-yl)-2-(1H-pyrazol-3-yl)-6,7,8,9-tetrahydro-2H-1,2,3,7-tetraazabenzo[cd]azulen-4-yl)-3-methylmorpholine], the IC50 on ATR kinase (setting [1]) is 10 to 100 nM; with LoVo cells (setting [2]) it was less than 100 nM.

Consider `CC(C)C1c2cc(N3CCOC[C@H]3C)nc3c2c(nn3-c2cc[nH]n2)CCN1C1COC1` (stereo partly drawn) [Compound 136, (3R)-4-(6-isopropyl-7-(oxetan-3-yl)-2-(1H-pyrazol-3-yl)-6,7,8,9-tetrahydro-2H-1,2,3,7-tetraazabenzo[cd]azulen-4-yl)-3-methylmorpholine], for which the values for the IC50 on ATR kinase (setting [1]) and in the experiment on LoVo cells (setting [2]) were 10 to 100 nM and less than 100 nM, respectively.

Turning to `C[C@@H]1COCCN1c1cc2c3c(nn(-c4cc[nH]n4)c3n1)CCN(C13CC(C1)C3)C2=O` [Compound 139, (R)-7-(bicyclo[1.1.1]pentan-1-yl)-4-(3-methylmorpholinyl)-2-(1H-pyrazol-3-yl)-2,7,8,9-tetrahydro-6H-1,2,3,7-tetraazabenzo[cd]azulene-6-one], the figures for the IC50 on ATR kinase (setting [3]) and in the experiment with LoVo cells (setting [4]) were less than 10 nM and 100 to 1000 nM, respectively.

In the case of `C[C@@H]1COCCN1c1cc2c3c(nn(-c4cc[nH]n4)c3n1)CCOC2(C)C` [Compound 146, (R)-6,6-dimethyl-4-(3-methylmorpholino)-2-(1H-pyrazol-3-yl)-2,6,8,9-tetrahydro-7-oxa-1,2,3-triazabenzo[cd]azulene], the IC50 is less than 10 nM on ATR kinase (setting [1]) and less than 100 nM in the experiment on LoVo cells (setting [2]).

In the case of `C[C@@H]1COCCN1c1cc2c3c(nn(-c4cc[nH]n4)c3n1)CCOC21CCC1` [Compound 147, (R)-4-(3-Methylmorpholino)-2-(1H-pyrazol-3-yl)-8,9-dihydro-2H-7-oxa-1,2,3-triazaspiro[benzo[cd]azulene-6,1'-cyclobutane]-1(9a),2a,2a1(5a),4-tetraene], the IC50 was less than 10 nM on ATR kinase (ATR kinase IC50 (nM), 1 nM ATR kinase (Eurofins), 28°C for 3 hours, maximum concentration 1 µM, 10 concentrations) and less than 100 nM in the experiment on LoVo cells (setting [4]).

Consider `C[C@@H]1COCCN1c1cc2c3c(nn(-c4cc[nH]n4)c3n1)CCN(C)C2(C)C` [Compound 149, (R)-3-methyl-4-(6,6,7-trimethyl-2-(1H-pyrazol-3-yl)-6,7,8,9-tetrahydro-2H-1,2,3,7-tetraazabenzo[cd]azulen-4-yl)morpholine], for which the IC50 at ATR kinase (setting [1]) was less than 10 nM; with LoVo cells (setting [2]) it was less than 100 nM.

Regarding `CC1c2cc(N3CCOC[C@H]3C)nc3c2c(nn3-c2cc[nH]n2)CCN1S(C)(=O)=NC1CC1` (stereo partly drawn) [Compound 153, (3R)-4-(7-(N-cyclopropyl-S-methylsulfonylimino)-6-methyl-2-(1H-pyrazol-3-yl)-6,7,8,9-tetrahydro-2H-1,2,3,7-tetraazabenzo[cd]azulen-4-yl)-3-methylmorpholine], the IC50 at ATR kinase (setting [3]) was in the range of 10 to 100 nM; in the experiment on LoVo cells (setting [4]), 100 to 1000 nM.

For the molecule `C[C@@H]1COCCN1c1cc2c3c(nc(-c4cc[nH]n4)n3n1)CCC(=O)N2C1(C)CC1` [Compound 154, (R)-6-(1-methylcyclopropyl)-4-(3-methylmorpholino)-2-(1H-pyrazol-3-yl)-8,9-dihydro-1,2a,3,6-tetraazabenzo[cd]azulene-7(6H )-one], the values for the IC50 at ATR kinase (setting [1]) and with LoVo cells (setting [2]) were less than 10 nM and less than 100 nM, respectively.
